Where “and” joins values, the source holds several entries; their conditions need not be identical. Equal values may be shown once. Toxic doses and inconclusive results are not listed. Rule as the data show it: active = T/C of 150% or more; inactive = T/C below 125%. Numbered stars: 1 amine (or outer) side, 2 acyl side, 3 side chain; on linkers, the order of the positions; unused ones are H or OH. Bridge positions count the residues as written; N and C are the ends. Square brackets hold non-standard residues; d marks the D form. Peptide text beside a SMILES is read from it. I, II: the chains in the order shown. Actinocin(9to1) = Cc1c2oc3c(C)ccc(C(=O)[*:1])c3nc-2c(C(=O)[*:2])c(N)c1=O; aThr = C[C@H](O)[C@H](N)C(=O)O; NMeV = CN[C@H](C(=O)O)C(C)C; Sar = CNCC(=O)O
System: L1210 leukemia ip in BDF1 mice, survival T/C
Assay: NCI In Vivo Anticancer Drug Screen. Data for tumor model L1210 Leukemia (intraperitoneal) in B6D2F1 (BDF1) mice
Settings: higher = longer survival
Summary of the method: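 Each compound was tested against a transplantable tumor grown in mice. The endpoint was survival, with treated animals benchmarked against vehicle controls as a simple ratio.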

Measured: T/C

Cc1c2oc3c(C)ccc(C(=O)N[C@@H]4C(=O)N[C@H](C(C)C)C(=O)N5CCC[C@H]5C(=O)N(C)CC(=O)N(C)[C@@H](C(C)C)C(=O)O[C@H]4C)c3nc-2c(C(=O)N[C@@H]2C(=O)N[C@H](C(C)C)C(=O)N3CCC[C@H]3C(=O)N(C)CC(=O)N(C)[C@@H](C(C)C)C(=O)O[C@H]2C)c(N)c1=O (I: [aThr][dV]P[Sar][NMeV] / II: [aThr][dV]P[Sar][NMeV]; ester I:1-I:C, II:1-II:C; linker I:N-II:N via Actinocin(9to1))
inactive: endpoint: mean survival time, dose: 0.02 mg/kg/injection, schedule: Q04DX003 (ip), vehicle: water 102 % of control and 105 % of control | endpoint: mean survival time, dose: 0.03 mg/kg/injection, schedule: Q01DX009 (ip), vehicle: saline 111 % of control | endpoint: mean survival time, dose: 0.03 mg/kg/injection, schedule: Q04DX003 (ip), vehicle: water 105 % of control and 110 % of control | endpoint: mean survival time, dose: 0.05 mg/kg/injection, schedule: Q01DX009 (ip), vehicle: saline 111 % of control | endpoint: mean survival time, dose: 0.05 mg/kg/injection, schedule: Q04DX003 (ip), vehicle: other 103 % of control | endpoint: mean survival time, dose: 0.1 mg/kg/injection, schedule: Q01DX009 (ip), vehicle: saline + alcohol 103 % of control | endpoint: mean survival time, dose: 0.11 mg/kg/injection, schedule: Q01DX001 (ip), vehicle: saline 108 % of control | endpoint: mean survival time, dose: 0.12 mg/kg/injection, schedule: Q01DX Z (ip), vehicle: carboxymethylcellulose (CMC) 102 % of control | endpoint: mean survival time, dose: 0.13 mg/kg/injection, schedule: Q01DX009 (ip), vehicle: saline 103 % of control | endpoint: mean survival time, dose: 0.15 mg/kg/injection, schedule: Q02DX010 (ip), vehicle: carboxymethylcellulose (CMC) 104 % of control | endpoint: mean survival time, dose: 0.16 mg/kg/injection, schedule: Q01DX Z (ip), vehicle: carboxymethylcellulose (CMC) 94 % of control | endpoint: mean survival time, dose: 0.16 mg/kg/injection, schedule: Q## X032 (ip), vehicle: saline 107 % of control | endpoint: mean survival time, dose: 0.2 mg/kg/injection, schedule: Q01DX009 (ip), vehicle: saline 109 % of control | endpoint: mean survival time, dose: 0.22 mg/kg/injection, schedule: Q02DX010 (ip), vehicle: other 100 % of control | endpoint: mean survival time, dose: 0.23 mg/kg/injection, schedule: Q02DX010 (ip), vehicle: carboxymethylcellulose (CMC) 92 % of control | endpoint: mean survival time, dose: 0.24 mg/kg/injection, schedule: Q## X032 (ip), vehicle: saline 109 % of control | endpoint: mean survival time, dose: 0.3 mg/kg/injection, schedule: Q## X032 (ip), vehicle: saline 110 % of control | endpoint: mean survival time, dose: 1.0 mg/kg/injection, schedule: Q## X004 (ip), vehicle: saline 101 % of control | endpoint: mean survival time, dose: 0.7 micrograms/kg/injection, schedule: Q01DX009 (ip), vehicle: saline 100 % of control and 104 % of control | endpoint: mean survival time, dose: 0.8 micrograms/kg/injection, schedule: Q01DX Z (ip), vehicle: saline 104 % of control | endpoint: mean survival time, dose: 1.5 micrograms/kg/injection, schedule: Q01DX009 (ip), vehicle: saline 97 % of control and 104 % of control | endpoint: mean survival time, dose: 3.0 micrograms/kg/injection, schedule: Q01DX009 (ip), vehicle: saline 102 % of control and 104 % of control | endpoint: mean survival time, dose: 3.1 micrograms/kg/injection, schedule: Q01DX001 (ip), vehicle: saline 100 % of control | endpoint: mean survival time, dose: 3.2 micrograms/kg/injection, schedule: Q01DX Z (ip), vehicle: saline 107 % of control | endpoint: mean survival time, dose: 3.5 micrograms/kg/injection, schedule: Q01DX009 (ip), vehicle: saline 97 % of control | endpoint: mean survival time, dose: 3.5 micrograms/kg/injection, schedule: Q01DX Z (ip), vehicle: carboxymethylcellulose (CMC) 109 % of control | endpoint: mean survival time, dose: 4.0 micrograms/kg/injection, schedule: Q01DX009 (ip), vehicle: water 103 % of control and 106 % of control | endpoint: mean survival time, dose: 5.4 micrograms/kg/injection, schedule: Q01DX Z (ip), vehicle: carboxymethylcellulose (CMC) 111 % of control | endpoint: mean survival time, dose: 6.3 micrograms/kg/injection, schedule: Q01DX001 (ip), vehicle: saline 107 % of control | endpoint: mean survival time, dose: 12.0 micrograms/kg/injection, schedule: Q01DX006 (iv), vehicle: other 103 % of control | endpoint: mean survival time, dose: 12.0 micrograms/kg/injection, schedule: Q01DX Z (im), vehicle: other 103 % of control | endpoint: mean survival time, dose: 12.0 micrograms/kg/injection, schedule: Q01DX Z (sc), vehicle: other 105 % of control | endpoint: mean survival time, dose: 12.5 micrograms/kg/injection, schedule: Q01DX001 (ip), vehicle: saline 101 % of control | endpoint: mean survival time, dose: 12.5 micrograms/kg/injection, schedule: Q01DX009 (ip), vehicle: water 103 % of control | endpoint: mean survival time, dose: 17.0 micrograms/kg/injection, schedule: Q04DX002 (ip), vehicle: saline 97 % of control and 100 % of control | endpoint: mean survival time, dose: 20.0 micrograms/kg/injection, schedule: Q01DX015 (ip), vehicle: saline 108 % of control | endpoint: mean survival time, dose: 25.0 micrograms/kg/injection, schedule: Q01DX001 (ip), vehicle: saline 111 % of control | endpoint: mean survival time, dose: 25.0 micrograms/kg/injection, schedule: Q01DX009 (ip), vehicle: water 106 % of control | endpoint: mean survival time, dose: 25.0 micrograms/kg/injection, schedule: Q01DX Z (sc), vehicle: other 103 % of control | endpoint: mean survival time, dose: 35.0 micrograms/kg/injection, schedule: Q04DX002 (ip), vehicle: saline 103 % of control and 106 % of control | endpoint: mean survival time, dose: 40.0 micrograms/kg/injection, schedule: Q01DX Z (ip), vehicle: carboxymethylcellulose (CMC) 110 % of control | endpoint: mean survival time, dose: 50.0 micrograms/kg/injection, schedule: Q01DX001 (ip), vehicle: saline 109 % of control | endpoint: mean survival time, dose: 50.0 micrograms/kg/injection, schedule: Q01DX009 (ip), vehicle: water 105 % of control | endpoint: mean survival time, dose: 50.0 micrograms/kg/injection, schedule: Q01DX Z (oral), vehicle: other 111 % of control | endpoint: mean survival time, dose: 60.0 micrograms/kg/injection, schedule: Q01DX Z (ip), vehicle: carboxymethylcellulose (CMC) 100 % of control | endpoint: mean survival time, dose: 64.0 micrograms/kg/injection, schedule: Q01DX001 (ip), vehicle: clinical formulation 107 % of control | endpoint: mean survival time, dose: 64.0 micrograms/kg/injection, schedule: Q01DX001 (ip), vehicle: saline 104 % of control | endpoint: mean survival time, dose: 64.0 micrograms/kg/injection, schedule: Q01DX009 (ip), vehicle: clinical formulation 103 % of control | endpoint: mean survival time, dose: 70.0 micrograms/kg/injection, schedule: Q04DX002 (ip), vehicle: saline 109 % of control | endpoint: mean survival time, dose: 100.0 micrograms/kg/injection, schedule: Q01DX001 (ip), vehicle: saline 109 % of control | endpoint: mean survival time, dose: 100.0 micrograms/kg/injection, schedule: Q01DX009 (ip), vehicle: saline + alcohol 103 % of control | endpoint: mean survival time, dose: 100.0 micrograms/kg/injection, schedule: Q01DX Z (ip), vehicle: other 101 % of control | endpoint: mean survival time, dose: 100.0 micrograms/kg/injection, schedule: Q01DX Z (oral), vehicle: other 107 % of control | endpoint: mean survival time, dose: 128.0 micrograms/kg/injection, schedule: Q01DX001 (ip), vehicle: clinical formulation 109 % of control | endpoint: mean survival time, dose: 128.0 micrograms/kg/injection, schedule: Q01DX001 (ip), vehicle: saline 109 % of control | endpoint: mean survival time, dose: 140.0 micrograms/kg/injection, schedule: Q04DX002 (ip), vehicle: saline 93 % of control and 102 % of control | endpoint: mean survival time, dose: 280.0 micrograms/kg/injection, schedule: Q04DX002 (ip), vehicle: saline 106 % of control | endpoint: mean survival time, dose: 512.0 micrograms/kg/injection, schedule: Q04DX003 (ip), vehicle: water 100 % of control | endpoint: mean survival time, dose: 570.0 micrograms/kg/injection, schedule: Q04DX002 (ip), vehicle: saline 100 % of control | endpoint: median survival time, dose: 0.01 mg/kg/injection, schedule: Q01DX009 (ip), vehicle: water 107 % of control | endpoint: median survival time, dose: 0.02 mg/kg/injection, schedule: Q01DX009 (ip), vehicle: water 109 % of control (2×) and 110 % of control | endpoint: median survival time, dose: 0.03 mg/kg/injection, schedule: Q04DX003 (ip), vehicle: water 100 % of control | endpoint: median survival time, dose: 0.05 mg/kg/injection, schedule: Q01DX001 (ip), vehicle: saline 98 % of control | endpoint: median survival time, dose: 0.05 mg/kg/injection, schedule: Q01DX002 (ip), vehicle: saline 111 % of control | endpoint: median survival time, dose: 0.06 mg/kg/injection, schedule: Q01DX001 (ip), vehicle: water 100 % of control | endpoint: median survival time, dose: 0.06 mg/kg/injection, schedule: Q04DX003 (ip), vehicle: water 107 % of control | endpoint: median survival time, dose: 0.06 mg/kg/injection, schedule: Q08DX002 (ip), vehicle: water 94 % of control | endpoint: median survival time, dose: 0.08 mg/kg/injection, schedule: Q01DX009 (ip), vehicle: water 108 % of control | endpoint: median survival time, dose: 0.1 mg/kg/injection, schedule: Q01DX001 (ip), vehicle: saline 102 % of control | endpoint: median survival time, dose: 0.12 mg/kg/injection, schedule: Q01DX001 (ip), vehicle: water 111 % of control | endpoint: median survival time, dose: 0.12 mg/kg/injection, schedule: Q08DX002 (ip), vehicle: water 105 % of control | endpoint: median survival time, dose: 0.2 mg/kg/injection, schedule: Q01DX001 (ip), vehicle: saline 109 % of control | endpoint: median survival time, dose: 0.4 mg/kg/injection, schedule: Q01DX001 (ip), vehicle: saline 111 % of control | endpoint: median survival time, dose: 0.5 mg/kg/injection, schedule: Q04DX003 (ip), vehicle: water 96 % of control | endpoint: median survival time, dose: 4.0 micrograms/kg/injection, schedule: Q03HX016 (ip), vehicle: water 94 % of control | endpoint: median survival time, dose: 8.0 micrograms/kg/injection, schedule: Q03HX008 (ip), vehicle: water 100 % of control | endpoint: median survival time, dose: 8.0 micrograms/kg/injection, schedule: Q03HX016 (ip), vehicle: water 111 % of control | endpoint: median survival time, dose: 16.0 micrograms/kg/injection, schedule: Q03HX008 (ip), vehicle: water 111 % of control | endpoint: median survival time, dose: 16.0 micrograms/kg/injection, schedule: Q03HX016 (ip), vehicle: water 100 % of control | endpoint: median survival time, dose: 31.0 micrograms/kg/injection, schedule: Q03HX016 (ip), vehicle: water 100 % of control | endpoint: median survival time, dose: 200.0 micrograms/kg/injection, schedule: Q01DX009 (ip), vehicle: saline 93 % of control
